Values quoted from earlier work in patent US20260272607A1, “METHOD OF MARKING LESIONS” (Cook Medical Technologies LLC, priority 2023, published 2026).

Test system: lung nodules
Settings: ICG dye marking without use of a coil; prior experience

CC1(C)C(/C=C/C=C/C=C/C=C2\N(CCCCS(=O)(=O)O)c3ccc4ccccc4c3C2(C)C)=[N+](CCCCS(=O)(=O)[O-])c2ccc3ccccc3c21 [ICG dye, indocyanine green]
persistence of dye effect after ICG dye marking without a coil: fade away over several hours
